Measurements taken from publication PMC12947280, “An Antifungal with a Novel Mechanism of Action Discovered via Resistance Gene-Guided Genome Mining” (ACS Central Science, 2026).
Converted amounts (≈) assume the structure as drawn. Where two headings read alike, the source gives them in different places.

How the values were obtained:
Test in all cases: Antifungal screening, broth microdilution MIC
Assay type in all cases: cell-based
[1] = system: Aspergillus flavus ATCC 204304; settings: for MIC: ATCC204304, Aspergillus flavus ATCC 204304
Procedure: (§1) Antifungal screening of 1
(§2) Antifungal screening was performed by Micromyx, LLC (Kalamazoo, Michigan, USA). Test organisms were either reference strains from the American Type Culture Collection (ATCC; Manassas, VA), the Centers for Disease Control and Prevention (CDC; Atlanta, GA), or clinical isolates from the Micromyx (MMX) collection. Upon receipt at Micromyx, the isolates were streaked under suitable conditions onto agar medium appropriate to each organism. The yeast isolates were incubated for 24 hr at 35 °C and the fungi were incubated for 7 to 13 days at 35 °C, as appropriate. Colonies harvested from these growth plates were resuspended in the appropriate medium containing a cryoprotectant. Aliquots of each suspension were then frozen […]
(§3) Prior to testing, the yeast isolates were streaked from frozen vials onto Sabouraud Dextrose Agar (SAB; Becton Dickenson [BD]/BBL; Sparks, MD, Lot No. 2228660) and were incubated at 35°C for 24 hr. Additional fungal isolates were streaked from frozen vials onto potato dextrose agar (BD/BBL; Sparks, MD, Lot No. 2046481) and incubated under optimal conditions for […]
(§4) All MIC measurements were performed in RPMI1640 from Hyclone Laboratories (Logan, UT;
(§5) Cat. No. SH3001104; Lot No. AC10257966A) buffered with MOPS to pH-7 from Millipore […]
(§6) MIC values were determined using a broth microdilution procedure described by CLSI. 5,6.
(§7) Automated liquid handlers (Multidrop 384, Labsystems, Helsinki, Finland; Biomek 3000 and […]
(§8) Biomek FX, Beckman Coulter Fullerton CA) were used to conduct serial dilutions and liquid […]
(§9) Solutions of 1 were added in an 11 point 2x serial dilution in DMSO with a maximum tested concentration of 32 μg/ml in the culture medium. Drug solution was added at 1% v/v into 200 μl […]
(§10) A standardized inoculum of each test organism was prepared in appropriate media per CLSI methods.5,6 The plates were then inoculated with 10 µL of the diluted inoculum using the Biomek 3000 from low to high drug concentration, resulting in a final concentration of approximately 0.5 to 2.5 x 10^3 CFU/mL for yeast and 0.2 to 2.5 x 10^4 CFU/mL for the other fungi. An un-inoculated plate was incubated for the purpose of assessing solubility of the drug […]
(§11) The plates were stacked 3 to 4 high, covered with a sterile lid on the top plate, and incubated aerobically at 35 °C for 24, 48, and 72 h. For yeast, both the MIC based on complete inhibition and 50% inhibition were reported at 24 and 48 h. For other fungal isolates, the MIC values were recorded at 24 and 48 hr and were based on complete inhibition and 50% inhibition.
(§12) Intact protein LCMS analysis
(§13) 10 μM of recombinant S. cerevisiae ALS was incubated with 10 μM compound 1 in buffer (50 mM Tris pH 7.5, 100 mM KCl, 10 uM FAD, 1 mM TPP, 10 mM MgCl2 (with 2.5% DMSO from compound)) at 22 °C for 30 min. Unreacted 1 was removed by passing the reaction mixture through a 30 kDa MWCO filter (Millipore). The collected protein was then denatured and reduced by incubation with 6 M urea and 10 mM DTT at 37 °C for 1 h followed by 20 mM iodoacetamide alkylation for 30 min in dark. This reaction mixture then underwent buffer exchange into 100 mM Tris-HCl pH 8.0 and 10 mM CaCl2 buffer using a 30 kDa MWCO filter.
(§14) The protein was then incubated with sequencing grade chymotrypsin (Promega) (15:1,w/w) for […]
(§15) After digestion, the peptide mixture was immediately analysed by LC-MS/MS using a Waters I-class UPLC equipped with an ACQUITY UPLC BEH C18 column (2.1x50 mm, 1.7 µm, Waters) at 50 °C coupled to a Waters Synapt G2Si MS. The sample was injected and subjected to an LC gradient starting from 0.5% mobile phase B (ACN with 0.1% formic acid) for 5 min with linear increase to 40% B over 35 min. Mobile phase A was 0.1% formic acid water. Flow rate was maintained at 0.3 ml/min. MS/MS data was acquired in positive ionization mode with data dependent MS/MS acquisition. Peptide mapping was performed with PEAKs Studio 8.0 (Bioinformatics Solutions Inc.) followed by manual review to identify peptides putatively modified by covalent addition of 1. […]

[2] = system: Fusarium oxysporum ATCC 48112; settings: for MIC: ATCC48112, Fusarium oxysporum ATCC 48112
Procedure: as §1, §2, §3, §4, §5, §6, §7, §8, §9, §10, §11, §12, §13, §14, §15

Aspergillus fumigatus = settings: for MIC: Aspergillus fumigatus
Procedure: as §1, §2, §3, §4, §5, §6, §7, §8, §9, §10, §11, §12, §13, §14, §15

[3] = system: Scedosporium apiospermum ATCC MYA-3635; settings: for MIC: Scedosporium apiospermum ATCC MYA-3635
Procedure: as §1, §2, §3, §4, §5, §6, §7, §8, §9, §10, §11, §12, §13, §14, §15

[4] = 24 hr, read-out: MIC 100% growth inhibition
[5] = 24 hr, read-out: MIC >50% growth inhibition
[6] = 48 hr, read-out: MIC 100% growth inhibition
[7] = 48 hr, read-out: MIC >50% growth inhibition

SMILES: CCCC1C(C)=CC2CC=CC3(C)C2C1C(=O)C31C(=O)NC(CCCO)C1=O (stereo not drawn) [compound 1]
- MIC [1, 4]: > 32 µg/mL
- MIC [1, 5]: > 32 µg/mL
- MIC [1, 6]: > 32 µg/mL
- MIC [1, 7]: > 32 µg/mL
- MIC (Table S5) ([1]; Aspergillus flavus, species summary): > 32
- MIC [2, 4]: > 32 µg/mL
- MIC [2, 5]: > 32 µg/mL
- MIC [2, 6]: > 32 µg/mL
- MIC [2, 7]: > 32 µg/mL
- MIC (Table S5) ([2]; Fusarium oxysporum, species summary): > 32
- MIC (Table S5) (Aspergillus fumigatus; A. fumigatus, species summary): 2-16
- MIC (Aspergillus fumigatus; 24 h, read-out: MIC 100% growth inhibition, Aspergillus fumigatus ATCC MYA-3626, 24 hr): 4 µg/mL (≈ 10.4 µM)
- MIC (Aspergillus fumigatus; 24 h, read-out: MIC 100% growth inhibition, Aspergillus fumigatus CDC 0731 (azole resistant), 24 hr): 16 µg/mL (≈ 41.5 µM)
- MIC (Aspergillus fumigatus; 24 h, read-out: MIC 100% growth inhibition, Aspergillus fumigatus CDC 0732 (azole resistant), 24 hr): 8 µg/mL (≈ 20.8 µM)
- MIC (Aspergillus fumigatus; 24 h, read-out: MIC 100% growth inhibition, Aspergillus fumigatus CDC 0733 (azole resistant), 24 hr): 8 µg/mL (≈ 20.8 µM)
- MIC (Aspergillus fumigatus; 24 h, read-out: MIC 100% growth inhibition, Aspergillus fumigatus CDC 0734 (azole resistant), 24 hr): 8 µg/mL (≈ 20.8 µM)
- MIC (Aspergillus fumigatus; 24 h, read-out: MIC 100% growth inhibition, Aspergillus fumigatus CDC 0735 (azole resistant), 24 hr): 8 µg/mL (≈ 20.8 µM)
- MIC (Aspergillus fumigatus; 24 h, read-out: MIC 100% growth inhibition, Aspergillus fumigatus CDC 0736 (azole susceptible), 24 hr): 8 µg/mL (≈ 20.8 µM)
- MIC (Aspergillus fumigatus; 24 h, read-out: MIC 100% growth inhibition, Aspergillus fumigatus CDC 0737 (azole susceptible), 24 hr): 16 µg/mL (≈ 41.5 µM)
- MIC (Aspergillus fumigatus; 24 h, read-out: MIC 100% growth inhibition, Aspergillus fumigatus CDC 0738 (azole susceptible), 24 hr): 2 µg/mL (≈ 5.19 µM)
- MIC (Aspergillus fumigatus; 24 h, read-out: MIC 100% growth inhibition, Aspergillus fumigatus CDC 0739 (azole susceptible), 24 hr): 4 µg/mL (≈ 10.4 µM)
- MIC (Aspergillus fumigatus; 24 h, read-out: MIC 100% growth inhibition, Aspergillus fumigatus CDC 0740 (azole susceptible), 24 hr): 4 µg/mL (≈ 10.4 µM)
- MIC (Aspergillus fumigatus; 24 h, read-out: MIC >50% growth inhibition, Aspergillus fumigatus ATCC MYA-3626, 24 hr): 4 µg/mL (≈ 10.4 µM)
- MIC (Aspergillus fumigatus; 24 h, read-out: MIC >50% growth inhibition, Aspergillus fumigatus CDC 0731 (azole resistant), 24 hr): 2 µg/mL (≈ 5.19 µM)
- MIC (Aspergillus fumigatus; 24 h, read-out: MIC >50% growth inhibition, Aspergillus fumigatus CDC 0732 (azole resistant), 24 hr): 2 µg/mL (≈ 5.19 µM)
- MIC (Aspergillus fumigatus; 24 h, read-out: MIC >50% growth inhibition, Aspergillus fumigatus CDC 0733 (azole resistant), 24 hr): 4 µg/mL (≈ 10.4 µM)
- MIC (Aspergillus fumigatus; 24 h, read-out: MIC >50% growth inhibition, Aspergillus fumigatus CDC 0734 (azole resistant), 24 hr): 4 µg/mL (≈ 10.4 µM)
- MIC (Aspergillus fumigatus; 24 h, read-out: MIC >50% growth inhibition, Aspergillus fumigatus CDC 0735 (azole resistant), 24 hr): 4 µg/mL (≈ 10.4 µM)
- MIC (Aspergillus fumigatus; 24 h, read-out: MIC >50% growth inhibition, Aspergillus fumigatus CDC 0736 (azole susceptible), 24 hr): 4 µg/mL (≈ 10.4 µM)
- MIC (Aspergillus fumigatus; 24 h, read-out: MIC >50% growth inhibition, Aspergillus fumigatus CDC 0737 (azole susceptible), 24 hr): 2 µg/mL (≈ 5.19 µM)
- MIC (Aspergillus fumigatus; 24 h, read-out: MIC >50% growth inhibition, Aspergillus fumigatus CDC 0738 (azole susceptible), 24 hr): 1 µg/mL (≈ 2.59 µM)
- MIC (Aspergillus fumigatus; 24 h, read-out: MIC >50% growth inhibition, Aspergillus fumigatus CDC 0739 (azole susceptible), 24 hr): 1 µg/mL (≈ 2.59 µM)
- MIC (Aspergillus fumigatus; 24 h, read-out: MIC >50% growth inhibition, Aspergillus fumigatus CDC 0740 (azole susceptible), 24 hr): 1 µg/mL (≈ 2.59 µM)
- MIC (Aspergillus fumigatus; 48 h, read-out: MIC 100% growth inhibition, Aspergillus fumigatus ATCC MYA-3626, 48 hr): > 32 µg/mL
- MIC (Aspergillus fumigatus; 48 h, read-out: MIC 100% growth inhibition, Aspergillus fumigatus CDC 0731 (azole resistant), 48 hr): > 32 µg/mL
- MIC (Aspergillus fumigatus; 48 h, read-out: MIC 100% growth inhibition, Aspergillus fumigatus CDC 0732 (azole resistant), 48 hr): > 32 µg/mL
- MIC (Aspergillus fumigatus; 48 h, read-out: MIC 100% growth inhibition, Aspergillus fumigatus CDC 0733 (azole resistant), 48 hr): > 32 µg/mL
- MIC (Aspergillus fumigatus; 48 h, read-out: MIC 100% growth inhibition, Aspergillus fumigatus CDC 0734 (azole resistant), 48 hr): > 32 µg/mL
- MIC (Aspergillus fumigatus; 48 h, read-out: MIC 100% growth inhibition, Aspergillus fumigatus CDC 0735 (azole resistant), 48 hr): > 32 µg/mL
- MIC (Aspergillus fumigatus; 48 h, read-out: MIC 100% growth inhibition, Aspergillus fumigatus CDC 0736 (azole susceptible), 48 hr): > 32 µg/mL
- MIC (Aspergillus fumigatus; 48 h, read-out: MIC 100% growth inhibition, Aspergillus fumigatus CDC 0737 (azole susceptible), 48 hr): > 32 µg/mL
- MIC (Aspergillus fumigatus; 48 h, read-out: MIC 100% growth inhibition, Aspergillus fumigatus CDC 0738 (azole susceptible), 48 hr): > 32 µg/mL
- MIC (Aspergillus fumigatus; 48 h, read-out: MIC 100% growth inhibition, Aspergillus fumigatus CDC 0739 (azole susceptible), 48 hr): 32 µg/mL (≈ 83 µM)
- MIC (Aspergillus fumigatus; 48 h, read-out: MIC 100% growth inhibition, Aspergillus fumigatus CDC 0740 (azole susceptible), 48 hr): 32 µg/mL (≈ 83 µM)
- MIC (Aspergillus fumigatus; 48 h, read-out: MIC >50% growth inhibition, Aspergillus fumigatus ATCC MYA-3626, 48 hr): > 32 µg/mL
- MIC (Aspergillus fumigatus; 48 h, read-out: MIC >50% growth inhibition, Aspergillus fumigatus CDC 0731 (azole resistant), 48 hr): > 32 µg/mL
- MIC (Aspergillus fumigatus; 48 h, read-out: MIC >50% growth inhibition, Aspergillus fumigatus CDC 0732 (azole resistant), 48 hr): > 32 µg/mL
- MIC (Aspergillus fumigatus; 48 h, read-out: MIC >50% growth inhibition, Aspergillus fumigatus CDC 0733 (azole resistant), 48 hr): > 32 µg/mL
- MIC (Aspergillus fumigatus; 48 h, read-out: MIC >50% growth inhibition, Aspergillus fumigatus CDC 0734 (azole resistant), 48 hr): > 32 µg/mL
- MIC (Aspergillus fumigatus; 48 h, read-out: MIC >50% growth inhibition, Aspergillus fumigatus CDC 0735 (azole resistant), 48 hr): 32 µg/mL (≈ 83 µM)
- MIC (Aspergillus fumigatus; 48 h, read-out: MIC >50% growth inhibition, Aspergillus fumigatus CDC 0736 (azole susceptible), 48 hr): 16 µg/mL (≈ 41.5 µM)
- MIC (Aspergillus fumigatus; 48 h, read-out: MIC >50% growth inhibition, Aspergillus fumigatus CDC 0737 (azole susceptible), 48 hr): 16 µg/mL (≈ 41.5 µM)
- MIC (Aspergillus fumigatus; 48 h, read-out: MIC >50% growth inhibition, Aspergillus fumigatus CDC 0738 (azole susceptible), 48 hr): 32 µg/mL (≈ 83 µM)
- MIC (Aspergillus fumigatus; 48 h, read-out: MIC >50% growth inhibition, Aspergillus fumigatus CDC 0739 (azole susceptible), 48 hr): 16 µg/mL (≈ 41.5 µM)
- MIC (Aspergillus fumigatus; 48 h, read-out: MIC >50% growth inhibition, Aspergillus fumigatus CDC 0740 (azole susceptible), 48 hr): 16 µg/mL (≈ 41.5 µM)
- MIC [3, 4]: 8 µg/mL (≈ 20.8 µM)
- MIC [3, 5]: 1 µg/mL (≈ 2.59 µM)
- MIC [3, 6]: > 32 µg/mL
- MIC [3, 7]: > 32 µg/mL
- MIC (Table S5) ([3]; Scedosporium apiospermum, species summary): 8
